# Test results reported in patent US20100152270A1, “PESTICIDE COMPOSITION COMPRISING A STRIGOLACTONE DERIVATIVE AND A FUNGICIDE COMPOUND” (priority 2007, published 2010).
# Where two headings read alike, the source gives them in different places.
# How the values were obtained:
# Format in all cases: cell-based
# Botrytis cinerea = Botrytis cinerea microtest in liquid medium (PDB), microtitre plates, optical density; conditions: 5 days incubation, 100% = no fungal growth
# Rhizoctonia solani = Rhizoctonia solani microtest in liquid medium (PDB), microtitre plates, optical density; conditions: 5 days incubation, 100% = no fungal growth
# Gibberella zeae = conditions: 3 days incubation, 100% = no fungal growth
# Pyricularia oryzae = conditions: 3 days incubation, 100% = no fungal growth
smiles,measurement,setting,value
CC1=CC(O/C=C2/C(=O)OC3c4ccccc4CC23)OC1=O (stereo not shown) [Compound A],Efficacy in %,Botrytis cinerea; 0.0000001 ppm,8%
same,Efficacy in %,Botrytis cinerea; 0.00003 ppm,1%
same,Efficacy in %,Rhizoctonia solani; 0.0000001 ppm,26%
same,Efficacy in %,Gibberella zeae; 0.0000001 ppm,35%
same,Efficacy in %,Pyricularia oryzae; 0.00003 ppm,4%
COCC(=O)N(c1c(C)cccc1C)C(C)C(=O)OC (stereo not shown) [Metalaxyl],Efficacy in %,Rhizoctonia solani; 0.001 ppm,27%
"Cc1nn(C)c(F)c1C(=O)Nc1ccccc1C(C)CC(C)C (stereo not shown) [N-[2-(1,3-Dimethylbutyl)phenyl]-5-fluor-1,3-dimethyl-1H-pyrazol-4-carboxamid]",Efficacy in %,Botrytis cinerea; 0.001 ppm,17%
OC(Cc1ccccc1Cl)(Cn1nc[nH]c1=S)C1(Cl)CC1 (stereo not shown) [Prothioconazole],Efficacy in %,Botrytis cinerea; 0.3 ppm,40%
CC(C)(C)C(O)(CCc1ccc(Cl)cc1)Cn1cncn1 (stereo not shown) [Tebuconazole],Efficacy in %,Gibberella zeae; 0.001 ppm,23%
CON=C(C(=O)OC)c1ccccc1CON=C(C)c1cccc(C(F)(F)F)c1 [Trifloxystrobin],Efficacy in %,Pyricularia oryzae; 0.3 ppm,58%
